Reference: article PMC3608532, “Characterization of a Single-Chain Variable Fragment Recognizing a Linear Epitope of Aβ: A Biotechnical Tool for Studies on Alzheimer’s Disease?” (PLoS ONE, 2013)

How the values were obtained:
Aβ(1-10) = test: ELISA binding to Aβ(1-10) peptides; settings: 60 ng/well, 100% C-terminally biotinylated Aβ1-10; p = 0.19 versus N-bio oligomers
Procedure: An ELISA was applied to characterize the binding affinity of scFv-IC16 to different Aβ conformers. After concentration determination of the Aβ(1-42) monomer, oligomer and fibril preparations, each conformer was diluted in immobilization buffer (0.1 M NaHCO3, pH 9.3) to a concentration of 5 µg/ml, and coated on Nunc immobilizer streptavidin F96 clear plates (250 ng/well) (Nunc, Thermo Scientific, Waltham, MA, USA). Alternatively, Aβ monomers were prepared seedless in the same concentration by dissolving 50 µg N-terminally biotinylated Aβ(1-42) in 1 ml immobilization buffer and diluting it further to 5 µg/ml. N- or C-terminally biotinylated Aβ(1-10) peptides were dissolved in immobilization buffer to a final concentration of 1.2 µg/ml (60 ng/well). 50 µl of these Aβ solutions were incubated in the well for 1 h. Each well was washed with 100 µl immobilization buffer and the plate was stored at 4°C overnight in 100 µl immobilization buffer per well. Unspecific binding sites were blocked with 50 µl blocking buffer (PBS, 1% BSA) at room temperature for 1 h. […] The reaction was terminated by adding sulfuric acid to a final concentration of 1 M. The absorbance was recorded at 450 nm on Polarstar Optima plate reader (BMG, Ortenberg, Germany).

Aβ(1-42) oligomers = test: ELISA binding to Aβ(1-42) oligomers; parameters: species or system human; settings: 250 ng/well, 10% N-biotinylated oligomers on streptavidin plate; compared with fibrils, p = 0.0014
Procedure: (§1) 1 mg of Aβ(1-42) or N-terminally/C-terminally biotinylated Aβ(1-42) was dissolved in 1 ml 1,1,1,3,3,3-hexafluorosiopropanol (HFIP) and incubated overnight at room temperature. Afterwards, Aβ(1-42) was mixed in the favored ratio with N-terminally/C-terminally biotinylated Aβ(1-42) and aliquoted. HFIP was evaporated using a SpeedVac (Concentrator 5301, Eppendorf, Germany) at room temperature for 30 min. To evaporate remaining HFIP, the sample was incubated overnight at room temperature with an open lid.
(§2) The preparation of Aβ(1-42) monomers and oligomers was carried out by size exclusion chromatography (SEC) as already described by Johansson et al with minor modifications. 250 µg of Aβ peptide was dissolved in 130 µl SEC buffer (50 mM NaPi, pH 7.4; 150 mM NaCl; 0.6% Tween-20) and briefly centrifuged (1 min, 16 100×g, room temperature) to remove insoluble fibrillar material. 100 µl of the supernatant was applied on a Superdex75 10/300 column (GE Healthcare, UK) connected to an Äkta purifier system (GE Healthcare, UK). The sample was eluted at a flow rate of 0.6 ml per min at room temperature and detected at wavelengths of 214, 250 and 278 nm. […] The concentration of the Aβ preparations was determined using the Micro BCA Protein Assay Kit (Thermo Scientific, Waltham, MA, USA). […] The samples were measured at a wavelength of 570 nm with a Polarstar Optima plate reader (BMG, Ortenberg, Germany). […]

Aβ(1-42) fibrils = test: ELISA binding to Aβ(1-42) fibrils; parameters: species or system human; settings: 250 ng/well, 10% N-biotinylated fibrils on streptavidin plate; scFv-IC16 12 and 23 nM; Penta-His and HRP anti-mouse detection, absorbance 450 nm
Procedure: as §1, §2

- ELISA binding to Aβ(1-10), C-terminal biotin tag (Aβ(1-10)): very similar to Aβ oligomers
- ELISA binding to Aβ oligomers (Aβ(1-42) oligomers): weaker
Substance: scFv-IC16: single-chain variable fragment (VH-(Gly4Ser)3-VL, His6- and Myc-tag) derived from Aβ binding monoclonal antibody IC16, expressed in E. coli
- ELISA binding to Aβ fibrils (Aβ(1-42) fibrils): preferential binding
